Laboratory results: patent US20250073238A1, “METHODS OF TREATING SYSTEMIC LUPUS ERYTHEMATOSUS USING BTK INHIBITORS” (BeiGene Switzerland GmbH, priority 2020, published 2025)

Assays:
[1] = system: NZBWF1/J lupus mouse model; experiment: Efficacy in NZBWF1/J lupus model; format: in vivo; conditions: for Blood urea nitrogen (BUN) level: day 96, serum
Method: […] NZBWF1 female mice at 26 weeks of age were randomized into 7 groups with 10 mice per group, based on proteinuria level, anti-dsDNA IgG level and body weight. […] Treatments were administered by oral gavage (p.o.) in a volume of 10 ml/kg body weight.
Mice were also being monitored daily for clinical signs of toxicity for the duration of the study. Body weight for each animal was recorded twice per week and proteinuria was measured weekly. Proteinuria was assessed using URIT 1 vp strips, and was scored on a 0-4 scale with scored as follows: 0=trace, 1≥30 mg/dL, 2≥100 mg/dL, 3≥300 mg/dL, and 4≥500 mg/dL.
On the day 96th of treatment, blood was collected quickly by the heart punctures under carbon dioxide euthanasia. The 300-500 μL blood was transferred to the coagulation tube, and the upper serum samples were separated by centrifuge at 2,000 g for 10 minutes, and then stored in the refrigerator at −80° C. for later use. 110 μL serum was used for the detection of blood urea nitrogen level, and 25 μL serum was used for measurement of TNFα and IL-10 levels by Luminex.
The kidney was removed and fixed with 10% neutral buffer formalin solution. The tissue was taken from the modified block, dehydrated with alcohol step by step, embedded in paraffin, sectioned by slide slicer (about 3 μm thick), stained with hematoxylin-cosin (HE), and examined by light microscopy for pathological changes of the kidney tissue. Sections were blindly scored as the sum of three systems, including inflammation (0-4), glomerular damage (0-4), and sclerosis (0-4).

SLE-cGVHD mouse model = experiment: Efficacy in systemic lupus erythematosus like chronic graft-versus-host-disease (SLE-cGVHD) model; format: in vivo
Method: Splenocytes from DBA/2 mice were transplanted into 54 B6D2F1 mice intravenously at day −7 and day 0. 48 animals were randomly divided into 4 groups of 12 animals each group according to the inoculation order. Treatment was initiated the next day after randomization until the end of the 26th day. […] Treatments were administered by oral gavage (p.o.) in a volume of 10 ml/kg body weight.
Mice were monitored daily for clinical signs of toxicity for the duration of the study. Body weight for each animal was recorded twice per week. On day 15th of treatment, blood was collected from the orbital venous sinus under isoflurane/oxygen anesthesia and the serum samples were prepared. An anti-ds DNA IgG ELISA kit (Chondrex, Inc., Cat. 3031) was used to quantitate anti-ds DNA IgG levels in sera from individual mice.
On day 8th, b 15th and 22th of treatment, proteinuria was assessed by determination of urine albumin using URIT 1 vp strips (URIT, China), and was scored on a 0-4 scale with scored as follows: 0=trace, 1≥30 mg/dL, 2≥100 mg/dL, 3≥300 mg/dL, and 4≥500 mg/dL.
The difference between the mean values of proteinuria level, spleen-index and anti-ds DNA IgG level in treatment and vehicle group was analyzed for significance using One-way ANOVA (followed by Dunnett's test). P<0.05 was considered statistically significant.

[2] = Plasma drug exposure at steady state in SLE-cGVHD mice; format: in vivo, mouse; conditions: day 26, 10 and 20 mg/kg BID oral
Method: Plasma was collected by centrifugation at 5, 600 rpm for 7 minutes. Bioanalysis was conducted at 3D BioOptima Co., Ltd. (Suzhou, China).

[3] = system: MRL/MpJ-Fas^lpr/J (MRL/lpr) mouse model; experiment: Efficacy in MRL/MpJ-Fas^lpr/J (MRL/lpr) lupus model; format: in vivo
Method: MRL/MpJ-Fas^lpr/J (MRL/lpr) mice purchased from Jackson laboratories were randomized into 6 groups with 11 mice per group, based on proteinuria level, anti-dsDNA IgG and body weight. […] Treatments were administered by oral gavage (p.o.) in a volume of 10 ml/kg body weight.
During the experimental period, the condition and mortality of the mice were recorded every day. Body weight for each animal was recorded twice per week.
Proteinuria was measured by determination of urine albumin weekly using URIT 1 vp strips (URIT, China), and was scored on a 0-4 scale with scored as follows: 0=trace, 1≥30 mg/dLl, 2≥100 mg/dL, 3≥300 mg/dLl, and 4≥500 mg/dL.
At the end of the study, blood was collected from the orbital venous sinus under isoflurane/oxygen anesthesia. The serum samples were prepared and analyzed for BUN level in serum. An anti-dsDNA IgG ELISA kit (Chondrex, Inc., Cat. 3031) was used to quantitate IgG level to anti-dsDNA IgG in sera from individual mice.
Mice were euthanized using carbon dioxide, spleen and body weight were measured at the end of the study. Spleen index (ratio of spleen weight to body weight) was calculated.
The kidneys were collected and preserved in 10% NBF, the tissues were trimmed, dehydrated, embedded in paraffin, sectioned (˜3 μm) and stained with HE. The histopathology exam was performed.
The difference between the mean values of proteinuria level, spleen-index, BUN level, kidney histopathology score and anti-dsDNA IgG level in treatment and vehicle group was analyzed for significance using One-way ANOVA (followed by Dunnett's test). P<0.05 was considered statistically significant.

[4] = Plasma drug exposure at steady state in MRL/lpr mice; format: in vivo, mouse; conditions: 1.5-50 mg/kg BID oral
Method: Plasma was collected by centrifugation at 5, 600 rpm for 7 minutes and was kept frozen at −80° C. until analysis. Bioanalysis was conducted at 3D BioOptima Co., Ltd. (Suzhou, China).

[5] = Compound 1 10 mg/kg BID p.o., day 96
[6] = Compound 1 3 and 10 mg/kg BID p.o.
[7] = 1.5, 5, 15 and 50 mg/kg BID oral, end of study
[8] = MMF 100 mg/kg QD p.o., compared with the control group

Q: For `C=CC(=O)N1CCC([C@@H]2CCNc3c(C(N)=O)c(-c4ccc(Oc5ccccc5)cc4)nn32)CC1` [Compound 1, (S)-7-(1-acryloylpiperidin-4-yl)-2-(4-phenoxyphenyl)-4,5,6,7-tetra-hydropyrazolo[1,5-a]pyrimidine-3-carboxamide], which “Secretion of IL-10 (serum level)” value [1, 5] is on record?
A: dramatically inhibited

Q: And the “Secretion of TNFα (serum level)” value [1, 5]?
A: dramatically inhibited

Q: And the Renal histopathology score ([1]; Compound 1 0.1-10 mg/kg BID p.o.)?
A: inhibited renal histopathology score in a dose-dependent manner

Q: And the Proteinuria ([1]; Compound 1 0.1-10 mg/kg BID p.o., vs. vehicle)?
A: dose-dependently suppressed

Q: And the Proteinuria ([1]; Compound 1 0.1 and 0.3 mg/kg BID p.o., compared with MMF 100 mg/kg QD)?
A: less effective than MMF

Q: And the Proteinuria ([1]; Compound 1 1, 3 and 10 mg/kg BID p.o., compared with MMF 100 mg/kg QD)?
A: no significant difference when compared with MMF

Q: What about the Spleen weight [1, 6] of the same compound?
A: dramatically inhibited

Q: And the “Blood urea nitrogen (BUN) level” value [1, 6]?
A: remarkably inhibited

Q: What about the “Anti-lupus effect compared with MMF” value ([1]; Compound 1 orally 3 and 10 mg/kg BID) of the same compound?
A: stronger anti-lupus effect

Q: And the “Anti-lupus effect (overall)” value ([1]; NZBWF1/J lupus mouse model, all results)?
A: strong anti-lupus effect

Q: And the “Level of anti-dsDNA IgG in serum” value (SLE-cGVHD mouse model; 10 and 20 mg/kg BID oral, day 15 of treatment, ELISA)?
A: inhibited

Q: What about the Proteinuria level (SLE-cGVHD mouse model; 10 and 20 mg/kg BID oral, day 22 of treatment) of the same compound?
A: significantly reduced

Q: What about the “Disease (overall)” value (SLE-cGVHD mouse model; SLE-cGvHD mouse model, all results) of the same compound?
A: ameliorated disease

Q: And the “Drug exposure AUC0-8h” value [2]?
A: increased dose dependently

Q: And the “Drug exposure Cmax” value [2]?
A: increased dose dependently

Q: And the “Efficacy (dose dependence)” value ([3]; 1.5 mg/kg to 50 mg/kg twice a day)?
A: dose-dependent efficacy

Q: And the “Protection from lupus nephritis” value ([3]; 1.5, 5, 15 and 50 mg/kg BID oral, 17 weeks)?
A: significantly protected

Q: And the Proteinuria ([3]; 1.5, 5, 15 and 50 mg/kg BID oral, day 118)?
A: significantly decreased

Q: And the Kidney histopathological score [3, 7]?
A: reduced

Q: And the “Serum blood urea nitrogen (BUN) level” value [3, 7]?
A: significantly decreased

Q: And the “Anti-dsDNA IgG level in serum” value ([3]; 1.5, 5, 15 and 50 mg/kg BID oral, end of study, compared with vehicle)?
A: inhibited

Q: And the “Anti-lupus effect (overall)” value ([3]; MRL/lpr mouse model, all results)?
A: strong anti-lupus effect

Q: What about the “Drug exposure AUC0-8h” value [4] of the same compound?
A: increased dose independently

Q: And the “Drug exposure Cmax” value [4]?
A: increased dose independently

Q: Which results are given for `COc1c(C)c2c(c(O)c1C/C=C(\C)CCC(=O)OCCN1CCOCC1)C(=O)OC2` [MMF, mycophenolate mofetil, reference compound]?
A: Renal histopathology score ([1]; MMF 100 mg/kg QD p.o.): not able to significantly inhibit; Spleen mass ([1]; MMF 100 mg/kg QD p.o.): not able to significantly inhibit; IL-10 level in serum [1, 8]: lower level of TNFα and IL-10 with no statistical significance; TNFα level in serum [1, 8]: lower level of TNFα and IL-10 with no statistical significance; Blood urea nitrogen (BUN) level ([1]; MMF 100 mg/kg QD p.o.): remarkably inhibited
